Publication PMC10095708, “Discovery of Novel STING Inhibitors Based on the Structure of the Mouse STING Agonist DMXAA” (Molecules, 2023)

Assays:
mSTING [1] = target: T1, mSTING (Mus musculus, UniProt Q3TBT3); assay: HTRF STING competition binding (cGAMP displacement) assay, mSTING; set-up: purchased Cisbio; conditions: for IC50: HTRF displacement assay, means from at least three repeated experiments; for binding to mSTING in displacement assay, in words: concentrations up to 100 μM
T1 sequence (Q3TBT3 1-378): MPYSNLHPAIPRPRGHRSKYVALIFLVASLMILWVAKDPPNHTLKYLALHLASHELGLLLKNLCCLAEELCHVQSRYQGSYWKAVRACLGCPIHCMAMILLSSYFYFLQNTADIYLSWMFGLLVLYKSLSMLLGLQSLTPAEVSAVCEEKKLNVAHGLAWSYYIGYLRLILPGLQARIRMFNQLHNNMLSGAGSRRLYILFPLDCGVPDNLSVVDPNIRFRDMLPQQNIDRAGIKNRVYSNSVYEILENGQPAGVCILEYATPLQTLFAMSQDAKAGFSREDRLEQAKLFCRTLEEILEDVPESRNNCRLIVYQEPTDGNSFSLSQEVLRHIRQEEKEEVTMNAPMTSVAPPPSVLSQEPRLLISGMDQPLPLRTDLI
Procedure: (§1) Mouse STING binding kits, human STING WT binding kits, human AQ STING binding kits, human H232 STING binding kits were purchased from Cisbio. […] QUANTI-Blue solution, QUANTI-Luc, 2′,3′-cGAMP were purchased from Invivogen. […] CellTiter-Glo luminescent cell viability assay kit was obtained from Promega.
(§2) According to the instructions of STING binding kits, the following solutions were successively added to each well in the 384-well plate: 5 μL of the detection compounds or 2′,3′-cGAMP (positive control) with different concentrations or diluent (negative control); 5 μL of human STING 6His-tagged protein (negative control well was added to detection buffer); 10 μL of STING ligand d2 and Anti 6His-Tb3^+ premixed working solution.

hSTING-H232 = target: T2, hSTING-H232 (Homo sapiens, UniProt Q86WV6); assay: HTRF STING competition binding (cGAMP displacement) assay, hSTING-H232; conditions: for IC50: HTRF displacement assay, means from at least three repeated experiments; for binding to hSTING-H232 in displacement assay, in words: concentrations up to 100 μM
T2 construct: purchased Cisbio
T2 sequence (Q86WV6 135-379 limits assumed): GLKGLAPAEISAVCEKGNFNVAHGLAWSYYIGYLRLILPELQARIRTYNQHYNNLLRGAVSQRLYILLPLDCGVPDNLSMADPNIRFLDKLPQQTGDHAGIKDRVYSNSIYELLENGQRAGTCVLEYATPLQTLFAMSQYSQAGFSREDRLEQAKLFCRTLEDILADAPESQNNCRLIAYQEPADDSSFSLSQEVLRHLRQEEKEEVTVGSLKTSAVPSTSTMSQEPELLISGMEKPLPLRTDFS
Procedure: as §1, §2

hSTING-AQ = target: T3, hSTING-AQ (Homo sapiens, UniProt Q86WV6, G230A/R293Q); assay: HTRF STING competition binding (cGAMP displacement) assay, hSTING-AQ; conditions: for IC50: HTRF displacement assay, means from at least three repeated experiments; for binding to hSTING-AQ in displacement assay, in words: concentrations up to 100 μM
T3 construct: purchased Cisbio
T3 sequence (Q86WV6 whole entry G230A/R293Q): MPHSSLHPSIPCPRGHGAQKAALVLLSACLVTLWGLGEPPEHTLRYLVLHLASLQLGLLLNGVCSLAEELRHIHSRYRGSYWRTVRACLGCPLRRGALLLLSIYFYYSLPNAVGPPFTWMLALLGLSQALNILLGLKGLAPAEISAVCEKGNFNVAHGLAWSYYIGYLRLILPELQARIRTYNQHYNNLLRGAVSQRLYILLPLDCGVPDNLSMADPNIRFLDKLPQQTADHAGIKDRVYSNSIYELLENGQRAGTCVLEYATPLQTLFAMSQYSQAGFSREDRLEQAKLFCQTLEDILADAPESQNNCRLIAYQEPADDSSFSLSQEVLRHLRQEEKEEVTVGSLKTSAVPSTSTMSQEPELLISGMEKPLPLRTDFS
Procedure: as §1, §2

hSTING-WT = target: T4, hSTING-WT (Homo sapiens, UniProt Q86WV6, H232R); assay: HTRF STING competition binding (cGAMP displacement) assay, hSTING-WT; conditions: for IC50: HTRF displacement assay, means from at least three repeated experiments; for binding to hSTING-WT in displacement assay, in words: concentrations up to 100 μM
T4 construct: purchased Cisbio
T4 sequence (Q86WV6 whole entry H232R): as the sequence (Q86WV6 whole entry G230A/R293Q) above, with A230G, H232R, Q293R counted along it
Procedure: as §1, §2

mSTING [2] = target: T1, mSTING; assay: Cellular assay for STING inhibitory activity, 293T mSTING cells stimulated with 2′,3′-cGAMP (SEAP); conditions: for inhibitory potency in murine STING reporter cells, initial screen: compound at 100 μM
hSTING [3] = test system: hSTING; set-up: method as in PMID 31927317; conditions: STING reporter cells, agonist activity; cited from earlier work
mSTING [4] = target: T1, mSTING; set-up: purchased Cisbio; method as in PMID 31927317; conditions: STING reporter cells, agonist activity; cited from earlier work
hSTING-R232 = hSTING-R232 (Homo sapiens, UniProt Q86WV6, H232R); assay: Cellular assay for STING inhibitory activity, 293T hSTING-R232 cells stimulated with 2′,3′-cGAMP (SEAP); conditions: for inhibitory potency in human STING reporter cells, initial screen: compound at 100 μM
hSTING-R232, sequence (Q86WV6 whole entry H232R): as the sequence (Q86WV6 whole entry G230A/R293Q) above, with A230G, H232R, Q293R counted along it

hSTING [5] = test system: hSTING; set-up: method as in PMID 31927317; conditions: STING competition binding kits; cited from earlier work
THP-1 cells = assay: CellTiter-Glo luminescent cell viability assay, THP-1 cells; conditions: at 10 μM, 48 h
293T cells = assay: CellTiter-Glo luminescent cell viability assay, 293T cells; conditions: at 10 μM, 48 h
[6] = test system: STING-triggered IRF pathway; assay: Inhibition of STING dual pathways, THP1-KI-hSTING-R232 cells, IRF (Lucia luciferase); conditions: THP1-hSTING-R232 cells stimulated with 2′,3′-cGAMP, 24 h; 11 20 µM, 27 33 µM, H151 2 µM
Excerpt: (§3) After the THP-1 reporter cell line stimulation with 2′,3′-cGAMP, we added STING inhibitors with appropriate concentrations for inhibiting the inductions of I IFN and proinflammatory cytokine. […] In addition, to exclude the effect of cytotoxicity of the compounds on the inhibitory activity, we used the CellTiter-Glo kit to assay cellular activity.

[7] = test system: STING-triggered NF-κB pathway; assay: Inhibition of STING dual pathways, THP1-KI-hSTING-R232 cells, NF-κB (SEAP); conditions: THP1-hSTING-R232 cells stimulated with 2′,3′-cGAMP, 24 h; 11 20 µM, 27 33 µM, H151 2 µM
Excerpt: as §3

COc1cc(C(=O)O)c2[nH]c3c(C)c(C)c(OC)cc3c(=O)c2c1 [Compound 34, 2,7-dimethoxy-5,6-dimethyl-9-oxo-9,10-dihydroacridine-4-carboxylic acid]
IC50 (mSTING [1]): > 100 µM
binding to mSTING in displacement assay, in words (mSTING [1]): inactive
IC50 (hSTING-H232): > 100 µM
binding to hSTING-H232 in displacement assay, in words (hSTING-H232): inactive
IC50 (hSTING-AQ): > 100 µM
binding to hSTING-AQ in displacement assay, in words (hSTING-AQ): inactive
IC50 (hSTING-WT): > 100 µM
binding to hSTING-WT in displacement assay, in words (hSTING-WT): inactive

COc1cc2c(=O)c3c(Cl)ccc4c3n(c2c(C)c1C)C(=O)C4 [Compound 25, 5-chloro-8-methoxy-9,10-dimethyl-6H-pyrrolo [3,2,1-de]acridine-1,6(2H)-dione]
IC50 (mSTING [1]): 32.4 µM
IC50 (hSTING-H232): 37.7 µM
IC50 (hSTING-AQ): 48 µM
IC50 (hSTING-WT): 78.1 µM

COc1cc2c(=O)c3cccc(CC(=O)O)c3[nH]c2c(C)c1C [Compound 4]
inhibitory potency in murine STING reporter cells, initial screen (mSTING [2]): not being as effective
EC50 (hSTING [3]): 135 ± 12.1 µM
EC50 (mSTING [4]): 72.3 ± 11.1 µM
inhibitory potency in human STING reporter cells, initial screen (hSTING-R232): not being as effective
IC50 (mSTING [1]): 28.2 µM
IC50 (hSTING [5]): 13.1 µM
IC50 (hSTING-H232): 43.8 µM
binding to hSTING-H232 in displacement assay, in words (hSTING-H232): IC50 values at the micromolar level
IC50 (hSTING-AQ): 47.6 µM
binding to hSTING-AQ in displacement assay, in words (hSTING-AQ): IC50 values at the micromolar level
IC50 (hSTING-WT): 21.1 µM
binding to hSTING-WT in displacement assay, in words (hSTING-WT): IC50 values at the micromolar level

CCc1ccc(NC(=O)Nc2c[nH]c3ccccc23)cc1 [Compound H151, reference compound]
cytotoxicity, cell viability THP-1 cells (THP-1 cells): significant cytotoxicity
cytotoxicity, cell viability 293T cells (293T cells): significant cytotoxicity

COc1cc2c(=O)c3c(F)ccc4c3n(c2c(C)c1C)C(=O)C4 [Compound 27, 5-fluoro-8-methoxy-9,10-dimethyl-6H-pyrrolo[3,2,1-de]acridine-1,6(2H)-dione]
IC50 (mSTING [2]): 30.8 µM
inhibitory potency in murine STING reporter cells, initial screen (mSTING [2]): excellent inhibition
IC50 (hSTING-R232): 38.8 µM
inhibitory potency in human STING reporter cells, initial screen (hSTING-R232): excellent inhibition
IC50 (mSTING [1]): 3.88 µM
binding to mSTING in displacement assay, in words (mSTING [1]): single-digit micromolar activity
inhibition of STING-triggered IRF pathway activation [6]: significantly inhibited
IC50 (hSTING-H232): 6.57 µM
binding to hSTING-H232 in displacement assay, in words (hSTING-H232): single-digit micromolar activity
IC50 (hSTING-AQ): 5.82 µM
binding to hSTING-AQ in displacement assay, in words (hSTING-AQ): single-digit micromolar activity
inhibition of STING-triggered NF-κB pathway activation [7]: significantly inhibited
IC50 (hSTING-WT): 7.67 µM
binding to hSTING-WT in displacement assay, in words (hSTING-WT): single-digit micromolar activity

COc1cc2c(=O)c3cc(F)cc(CC(=O)O)c3[nH]c2c(C)c1C [Compound 37]
IC50 (mSTING [1]): > 100 µM
IC50 (hSTING-H232): > 100 µM
IC50 (hSTING-AQ): > 100 µM
IC50 (hSTING-WT): > 100 µM

COc1cc2c3c(c1)c(=O)c1cc(OC)c(C)c(C)c1n3C(=O)C2 [Compound 29, 4,8-dimethoxy-9,10-dimethyl-6H-pyrrolo[3,2,1-de]acridine-1,6(2H)-dione]
IC50 (mSTING [1]): > 100 µM
IC50 (hSTING-H232): 82.8 µM
IC50 (hSTING-AQ): 70.5 µM
IC50 (hSTING-WT): > 100 µM

COc1cc2c(=O)c3cccc4c3n(c2c(C)c1C)C(=O)C4 [Compound 3]
inhibitory potency in murine STING reporter cells, initial screen (mSTING [2]): not being as effective
EC50 (hSTING [3]): 154 ± 9.6 µM
EC50 (mSTING [4]): 66.5 ± 10.5 µM
inhibitory potency in human STING reporter cells, initial screen (hSTING-R232): not being as effective
IC50 (mSTING [1]): 33.3 µM
IC50 (hSTING [5]): 10.3 µM
IC50 (hSTING-H232): 36 µM
binding to hSTING-H232 in displacement assay, in words (hSTING-H232): IC50 values at the micromolar level
IC50 (hSTING-AQ): 58.2 µM
binding to hSTING-AQ in displacement assay, in words (hSTING-AQ): IC50 values at the micromolar level
IC50 (hSTING-WT): 18.3 µM
binding to hSTING-WT in displacement assay, in words (hSTING-WT): IC50 values at the micromolar level

COc1cc2c(=O)c3cccc(C(=O)O)c3[nH]c2c(C)c1C [Compound 33, 7-methoxy-5,6-dimethyl-9-oxo-9,10-dihydroacridine-4-carboxylic acid]
IC50 (mSTING [1]): > 100 µM
binding to mSTING in displacement assay, in words (mSTING [1]): inactive
IC50 (hSTING-H232): > 100 µM
binding to hSTING-H232 in displacement assay, in words (hSTING-H232): inactive
IC50 (hSTING-AQ): > 100 µM
binding to hSTING-AQ in displacement assay, in words (hSTING-AQ): inactive
IC50 (hSTING-WT): > 100 µM
binding to hSTING-WT in displacement assay, in words (hSTING-WT): inactive
